Laboratory results published in patent publication US11771738B2 (Zoetis Services LLC, priority 2018, dated 2023).
Read-outs that look alike come from different tables or passages of the source.

Experiments:
Type in all cases: cell-based
[1] = test system: microfilariae of Dirofilaria immitis; assay: Dirofilaria immitis, Microfilaria (DiMf) In Vitro Assay; settings: Dirofilaria immitis, 72 h, read-out: DiMf MED, Minimum Effective Dose, D. immitis microfilariae motility, in vitro
[2] = test system: third stage larvae of Haemonchus contortus; assay: Haemonchus contortus, Larvae Stage 3 (HcL3) In Vitro Assay; settings: Haemonchus contortus, 96 h
D. immitis L4 larvae = assay: Dirofilaria immitis, L4 Stage (DiL4) In Vitro Assay; settings: for minimal effective concentration: Dirofilaria immitis, 72 h, read-out: DiL4 MED, Minimum Effective Dose, D. immitis L4 larvae motility, in vitro; for DiMf/DiL4: larval stage selectivity, ratio of DiMf MED to DiL4 MED
[3] = read-out: HcL3 MED, Minimum Effective Dose, H. contortus third stage larvae, approximately 96 hours
[4] = read-out: HcL3 MED, Haemonchus contortus third stage larvae in vitro, class mark appended to the Ex # in Table 3
[5] = read-out: HcL3 MED, approximately 96 hours incubation, multiple-resistant field isolate

| Structure (SMILES) | minimal effective concentration [1] | minimal effective concentration [2, 3] | minimal effective concentration (D. immitis L4 larvae) | DiMf/DiL4 (D. immitis L4 larvae) | minimal effective concentration [2, 4] | minimal effective concentration [2, 5] |
| --- | --- | --- | --- | --- | --- | --- |
| COc1ccsc1Cc1ccc(C[C@H]2OC(=O)[C@H](CC(C)C)N(C)C(=O)[C@@H](C)OC(=O)[C@H](CC(C)C)N(C)C(=O)[C@@H](Cc3ccc(Cc4sccc4OC)cc3)OC(=O)[C@H](CC(C)C)N(C)C(=O)[C@@H](C)OC(=O)[C@H](CC(C)C)N(C)C2=O)cc1 [Example 3-110, (3S,6R,9S,12R,15S,18R,21S,24R)-3,9,15,21-tetraisobutyl-6,18-bis(4-((3-methoxythiophen-2-yl)methyl)benzyl)-4,10,12,16,22,24-hexamethyl-1,7,13,19-tetraoxa-4,10,16,22-tetraazacyclotetracosan-2,5,8,11,14,17,20,23-octaone] | 0.03 µM | > 100 µM | 0.0001 µM | 300 | – | – |
| CC(C)C[C@H]1C(=O)O[C@H](Cc2ccc(Cc3scnc3Cl)cc2)C(=O)N(C)[C@@H](CC(C)C)C(=O)O[C@H](C)C(=O)N(C)[C@@H](CC(C)C)C(=O)O[C@H](Cc2ccc(Cc3scnc3Cl)cc2)C(=O)N(C)[C@@H](CC(C)C)C(=O)O[C@H](C)C(=O)N1C [Example 3-112, (3S,6R,9S,12R,15S,18R,21S,24R)-6,18-bis(4-((4-chlorothiazol-5-yl)methyl)benzyl)-3,9,15,21-tetraisobutyl-4,10,12,16,22,24-hexamethyl-1,7,13,19-tetraoxa-4,10,16,22-tetraazacyclotetracosan-2,5,8,11,14,17,20,23-octaone] | 0.001 µM | 1 µM | 3e-05 µM | 33.3 | < 1 µM | ≤ 1 µM |
| COc1ncc(Cc2ccc(C[C@H]3OC(=O)[C@H](CC(C)C)N(C)C(=O)[C@@H](C)OC(=O)[C@H](CC(C)C)N(C)C(=O)[C@@H](Cc4ccc(Cc5cnc(OC)c(F)c5)cc4)OC(=O)[C@H](CC(C)C)N(C)C(=O)[C@@H](C)OC(=O)[C@H](CC(C)C)N(C)C3=O)cc2)cc1F [Example 3-118, (3S,6R,9S,12R,15S,18R,21S,24R)-6,18-bis(4-((5-fluoro-6-methoxypyridin-3-yl)methyl)benzyl)-3,9,15,21-tetraisobutyl-4,10,12,16,22,24-hexamethyl-1,7,13,19-tetraoxa-4,10,16,22-tetraazacyclotetracosan-2,5,8,11,14,17,20,23-octaone] | 0.1 µM | > 100 µM | 0.001 µM | 100 | – | – |
| Cc1nnsc1Cc1ccc(C[C@H]2OC(=O)[C@H](CC(C)C)N(C)C(=O)[C@@H](C)OC(=O)[C@H](CC(C)C)N(C)C(=O)[C@@H](Cc3ccc(Cc4snnc4C)cc3)OC(=O)[C@H](CC(C)C)N(C)C(=O)[C@@H](C)OC(=O)[C@H](CC(C)C)N(C)C2=O)cc1 [Example 3-120, (3S,6R,9S,12R,15S,18R,21S,24R)-3,9,15,21-tetraisobutyl-4,6,10,16,18,22-hexamethyl-12,24-bis(4-((4-methyl-1,2,3-thiadiazol-5-yl)methyl)benzyl)-1,7,13,19-tetraoxa-4,10,16,22-tetraazacyclotetracosan-2,5,8,11,14,17,20,23-octaone] | 0.0004 µM | 1 µM | 0.0001 µM | 4 | < 1 µM | ≤ 1 µM |
| COc1ccc(Cc2ccc(C[C@H]3OC(=O)[C@H](CC(C)C)N(C)C(=O)[C@@H](C)OC(=O)[C@H](CC(C)C)N(C)C(=O)[C@@H](Cc4ccc(Cc5ccc(OC)nc5C)cc4)OC(=O)[C@H](CC(C)C)N(C)C(=O)[C@@H](C)OC(=O)[C@H](CC(C)C)N(C)C3=O)cc2)c(C)n1 [Example 3-121, (3S,6R,9S,12R,15S,18R,21S,24R)-3,9,15,21-tetraisobutyl-6,18-bis(4-((6-methoxy-2-methylpyridin-3-yl)methyl)benzyl)-4,10,12,16,22,24-hexamethyl-1,7,13,19-tetraoxa-4,10,16,22-tetraazacyclotetracosan-2,5,8,11,14,17,20,23-octaone] | 0.003 µM | 1.8 µM | 5e-05 µM | 60 | 1 to 3.3 µM | – |
